pIC50: −log10 of the molar value.
Columns and labels:
BTK = target: T1, BTK (Homo sapiens, UniProt Q06187); assay: Cell Degradation: BTK degradation in TMD-8 cells, HTRF assay; format: cell-based; conditions: 6 h treatment, IC50 (DC50) of BTK degradation
T1 construct: High control=Cell group with added DMSO and without compound, indicating microplate readings without BTK degradation; endogenous in cells; host or cells: TMD-8 cells
Outline: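 BTK levels read by HTRF (665 vs 620 nm) in lysates of TMD-8 cells after 6 h compound exposure (eight doses, 6-fold steps, 0.2% DMSO). Percent degradation relative to controls; four-parameter curve fitting gave DC50, with Dmax the top degradation.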

HEK-293 cells = assay: HEK-293 Cytotoxicity Assay (CellTiter-Glo); format: cell-based; conditions: Homo sapiens, HEK293, 72 h incubation, CellTiter-Glo luminescence
Outline: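 Four-parameter fit of % inhibition gives IC50, from CellTiter-Glo luminescent viability read-out. Cells exposed for 72 h to an 8-point, 4-fold series at 0.2% DMSO.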

T1 sequence (Q06187 whole entry): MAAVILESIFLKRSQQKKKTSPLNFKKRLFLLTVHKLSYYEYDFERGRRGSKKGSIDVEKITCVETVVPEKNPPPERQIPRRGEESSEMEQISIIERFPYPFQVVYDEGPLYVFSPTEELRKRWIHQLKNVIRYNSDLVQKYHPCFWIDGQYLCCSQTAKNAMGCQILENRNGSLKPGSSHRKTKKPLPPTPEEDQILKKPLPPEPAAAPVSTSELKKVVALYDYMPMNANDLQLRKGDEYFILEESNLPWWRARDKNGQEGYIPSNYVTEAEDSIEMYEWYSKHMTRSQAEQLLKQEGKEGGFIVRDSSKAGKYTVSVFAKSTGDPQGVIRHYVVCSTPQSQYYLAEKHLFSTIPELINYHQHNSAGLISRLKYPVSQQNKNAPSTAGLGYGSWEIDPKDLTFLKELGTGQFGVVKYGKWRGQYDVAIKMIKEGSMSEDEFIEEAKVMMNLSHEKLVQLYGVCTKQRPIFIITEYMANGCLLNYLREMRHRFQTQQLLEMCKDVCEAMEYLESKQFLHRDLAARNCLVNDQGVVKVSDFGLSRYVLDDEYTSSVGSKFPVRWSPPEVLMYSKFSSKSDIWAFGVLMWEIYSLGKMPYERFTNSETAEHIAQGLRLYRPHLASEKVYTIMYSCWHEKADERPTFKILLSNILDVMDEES

DC50 (BTK) | SMILES | pIC50 (HEK-293 cells)
4.6 nM | Cc1cc(-c2ncnc3[nH]c(-c4ccc(N5CCN(CC6CCN(c7ccc(N8CCC(=O)NC8=O)cc7)CC6)C[C@@H]5C)nc4)cc23)ccc1[C@@H](C)NC(=O)c1nc(C(C)(C)C)no1 [Example 106, 3-(tert-butyl)-N-((R)-1-(4-(6-(6-((S)-4-((1-(4-(2,4-dioxotetrahydropyrimidin-1(2H)-yl)phenyl)piperidin-4-yl)methyl)-2-methylpiperazin-1-yl)pyridin-3-yl)-7H-pyrrolo[2,3-d]pyrimidin-4-yl)-2-methylphenyl)ethyl)-1,2,4-oxadiazole-5-carboxamide] | < 5.00
0.35 nM | C[C@@H](NC(=O)c1noc(C(C)(C)C)n1)c1ccc(-c2ncnc3[nH]c(-c4ccc(N5CCN(CC6CCN(c7ccc(N8CCC(=O)NC8=O)cc7)CC6)CC5)cn4)cc23)cc1F [Example 108, (R)-5-(tert-butyl)-N-(1-(4-(6-(5-(4-((1-(4-(2,4-dioxotetrahydropyrimidin-1(2H)-yl)phenyl)piperidin-4-yl)methyl)piperazin-1-yl)pyridin-2-yl)-7H-pyrrolo[2,3-d]pyrimidin-4-yl)-2-fluorophenyl)ethyl)-1,2,4-oxadiazole-3-carboxamide] | < 5.00
0.72 nM | CC(C)(C)c1noc(C(=O)NCc2ccc(-c3ncnc4[nH]c(-c5ccc(N6CCN(CC7CCN(c8ccc(N9CCC(=O)NC9=O)cc8)CC7)CC6)cc5)cc34)cc2CO)n1 [Example 109, 3-(tert-butyl)-N-(4-(6-(4-(4-((1-(4-(2,4-dioxotetrahydropyrimidin-1(2H)-yl)phenyl)piperidin-4-yl)methyl)piperazin-1-yl)phenyl)-7H-pyrrolo[2,3-d]pyrimidin-4-yl)-2-(hydroxymethyl)benzyl)-1,2,4-oxadiazole-5-carboxamide] | < 5.00
> 2000 nM | Cc1cc(-c2ncnc3[nH]c(-c4ccc(N5CCN(CC6CCN(c7ccc(N8CCC(=O)N(C)C8=O)cc7)CC6)CC5)cn4)cc23)ccc1[C@@H](C)NC(=O)c1nc(C(C)(C)C)no1 [Example 110, (R)-3-(tert-butyl)-N-(1-(2-methyl-4-(6-(5-(4-((1-(4-(3-methyl-2,4-dioxotetrahydropyrimidin-1(2H)-yl)phenyl)piperidin-4-yl)methyl)piperazin-1-yl)pyridin-2-yl)-7H-pyrrolo[2,3-d]pyrimidin-4-yl)phenyl)ethyl)-1,2,4-oxadiazole-5-carboxamide] | < 5.00
1.68 nM | Cc1cc(N2CCN(CC3CCN(c4ccc(N5CCC(=O)NC5=O)c(C)c4)CC3)CC2)ccc1-c1nc2c(-c3ccc([C@@H](C)NC(=O)c4nc(C(C)(C)C)no4)c(C)c3)ncnc2[nH]1 [Example 114, (R)-3-(tert-butyl)-N-(1-(4-(8-(4-(4-((1-(4-(2,4-dioxotetrahydropyrimidin-1(2H)-yl)-3-methylphenyl)piperidin-4-yl)methyl)piperazin-1-yl)-2-methylphenyl)-9H-purin-6-yl)-2-methylphenyl)ethyl)-1,2,4-oxadiazole-5-carboxamide] | < 5.00
3.72 nM | Cc1cc(-c2ncnc3[nH]c(-c4ccc(N5CCN(CC6CCN(c7ccc(N8CCC(=O)NC8=O)cc7)CC6)CC5)nc4)cc23)ccc1[C@@H](C)NC(=O)c1cc(C(C)(C)C)on1 [Example 117, (R)-5-(tert-butyl)-N-(1-(4-(6-(6-(4-((1-(4-(2,4-dioxotetrahydropyrimidin-1(2H)-yl)phenyl)piperidin-4-yl)methyl)piperazin-1-yl)pyridin-3-yl)-7H-pyrrolo[2,3-d]pyrimidin-4-yl)-2-methylphenyl)ethyl)isoxazole-3-carboxamide] | < 5.00
0.23 nM | Cc1cc(-c2ncnc3[nH]c(-c4c(C)nn(C5CCN(CC6CCN(c7ccc(N8CCC(=O)NC8=O)cc7)CC6)CC5)c4C)cc23)ccc1[C@@H](C)NC(=O)c1cn(C(C)(C)C)nn1 [Example 121, (R)-1-(tert-butyl)-N-(1-(4-(6-(1-(1-((1-(4-(2,4-dioxotetrahydropyrimidin-1(2H)-yl)phenyl)piperidin-4-yl)methyl)piperidin-4-yl)-3,5-dimethyl-1H-pyrazol-4-yl)-7H-pyrrolo[2,3-d]pyrimidin-4-yl)-2-methylphenyl)ethyl)-1H-1,2,3-triazole-4-carboxamide] | < 5.00

Further lines, the compound ahead of its results:

SMILES | DC50 (BTK) | pIC50 (HEK-293 cells)
Cc1cc(-c2ncnc3[nH]c(-c4ccc(N5CCN(CC6CCN(c7ccc(N8CCC(=O)NC8=O)cc7)CC6)CC5)cc4)cc23)c(F)cc1[C@@H](C)NC(=O)c1noc(C(C)(C)C)n1 [Example 107, (R)-5-(tert-butyl)-N-(1-(4-(6-(4-(4-((1-(4-(2,4-dioxotetrahydropyrimidin-1(2H)-yl)phenyl)piperidin-4-yl)methyl)piperazin-1-yl)phenyl)-7H-pyrrolo[2,3-d]pyrimidin-4-yl)-5-fluoro-2-methylphenyl)ethyl)-1 2,4-oxadiazole-3-carboxamide] | 1.7 nM | < 5.00
Cc1cc(-c2ncnc3[nH]c(-c4ccc(N5CCN(CC6CCN(c7ccc(N8CCC(=O)NC8=O)c(F)c7)CC6)CC5)cc4)cc23)ccc1[C@@H](C)NC(=O)c1nc(C(C)(C)C)no1 [Example 111, (R)-3-(tert-butyl)-N-(1-(4-(6-(4-(4-((1-(4-(2,4-dioxotetrahydropyrimidin-1(2H)-yl)-3-fluorophenyl)piperidin-4-yl)methyl)piperazin-1-yl)phenyl)-7H-pyrrolo[2,3-d]pyrimidin-4-yl)-2-methylpheyl)ethyl)-1,2,4-oxadiazole-5-carboxamide] | 2.3 nM | < 5.00
Cc1cc(-c2ncnc3[nH]c(-c4ccc(N5CCN(CC6CCN(c7ccc(N8CCC(=O)NC8=O)c(C)c7)CC6)CC5)c(C)c4)nc23)ccc1[C@@H](C)NC(=O)c1nc(C(C)(C)C)no1 [Example 112, (R)-3-(tert-butyl)-N-(1-(4-(8-(4-(4-((1-(4-(2,4-dioxotetrahydropyrimidin-1(2H)-yl)-3-methylphenyl)piperidin-4-yl)methyl)piperazin-1-yl)-3-methylphenyl)-9H-purin-6-yl)-2-methylphenyl)ethyl)-1,2,4-oxadiazole-5-carboxamide] | 0.76 nM | < 5.00
COc1cc(-c2nc3c(-c4ccc([C@@H](C)NC(=O)c5nc(C(C)(C)C)no5)c(C)c4)ncnc3[nH]2)ccc1N1CCN(CC2CCN(c3ccc(N4CCC(=O)NC4=O)c(C)c3)CC2)CC1 [Example 113, (R)-3-(tert-butyl)-N-(1-(4-(8-(4-(4-((1-(4-(2,4-dioxotetrahydropyrimidin-1(2H)-yl)-3-methylphenyl)piperidin-4-yl)methyl)piperazin-1-yl)-3-methoxyphenyl)-9H-purin-6-yl)-2-methylphenyl)ethyl)-1,2,4-oxadiazole-5-carboxamide] | 0.97 nM | < 5.00
Cc1c([C@@H](C)NC(=O)c2noc(C(C)(C)C)n2)ccc(-c2ncnc3[nH]c(-c4ccc(N5CCN(CC6CCN(c7ccc(N8CCC(=O)NC8=O)cc7)CC6)CC5)cc4)cc23)c1F [Example 115, (R)-5-(tert-butyl)-N-(1-(4-(6-(4-(4-((1-(4-(2,4-dioxotetrahydropyrimidin-1(2H)-yl)phenyl)piperidin-4-yl)methyl)piperazin-1-yl)phenyl)-7H-pyrrolo[2,3-d]pyrimidin-4-yl)-3-fluoro-2-methylphenyl)ethyl)-1,2,4-oxadiazole-3-carboxamide] | 1.83 nM | < 5.00
Cc1cc(-c2ncnc3[nH]c(-c4cccc(N5CCN(CC6CCN(c7ccc(N8CCC(=O)NC8=O)cc7)CC6)CC5)c4)cc23)ccc1[C@@H](C)NC(=O)c1nc(C(C)(C)C)no1 [Example 116, (R)-3-(tert-butyl)-N-(1-(4-(6-(3-(4-((1-(4-(2,4-dioxotetrahydropyrimidin-1(2H)-yl)phenyl)piperidin-4-yl)methyl)piperazin-1-yl)phenyl)-7H-pyrrolo[2,3-d]pyrimidin-4-yl)-2-methylphenyl)ethyl)-1,2,4-oxadiazole-5-carboxamide] | 2.28 nM | < 5.00
C[C@@H](NC(=O)c1noc(C(C)(C)C)n1)c1ccc(-c2ncnc3[nH]c(-c4ccc(N5CCN(CC6CCN(c7ccc(N8CCC(=O)NC8=O)cc7)CC6)CC5)cc4)cc23)cc1CO [Example 118, (R)-5-(tert-butyl)-N-(1-(4-(6-(4-(4-((1-(4-(2,4-dioxotetrahydropyrimidin-1(2H)-yl)phenyl)piperidin-4-yl)methyl)piperazin-1-yl)phenyl)-7H-pyrrolo[2,3-d]pyrimidin-4-yl)-2-(hydroxymethyl)phenyl)ethyl)-1,2,4-oxadiazole-3-carboxamide] | 0.5 nM | < 5.00
Cc1cc(-c2ncnc3[nH]c(-c4ccc(N5CCN(CC6CCN(c7cccc(N8CCC(=O)NC8=O)c7)CC6)CC5)cn4)cc23)ccc1[C@@H](C)NC(=O)c1nc(C(C)(C)C)no1 [Example 119, (R)-3-(tert-butyl)-N-(1-(4-(6-(5-(4-((1-(3-(2,4-dioxotetrahydropyrimidin-1(2H)-yl)phenyl)piperidin-4-yl)methyl)piperazin-1-yl)pyridin-2-yl)-7H-pyrrolo[2,3-d]pyrimidin-4-yl)-2-methylphenyl)ethyl)-1,2,4-oxadiazole-5-carboxamide] | 1.2 nM | < 5.00
Cc1nn(C2CCN(CC3CCN(c4ccc(N5CCC(=O)NC5=O)cc4)CC3)CC2)c(C)c1-c1cc2c(-c3ccc([C@@H](C)NC(=O)c4noc(C(C)(C)C)n4)c(CO)c3)ncnc2[nH]1 [Example 120, (R)-5-(tert-butyl)-N-(1-(4-(6-(1-(1-((1-(4-(2,4-dioxotetrahydropyrimidin-1(2H)-yl)phenyl)piperidin-4-yl)methyl)piperidin-4-yl)-3,5-dimethyl-1H-pyrazol-4-yl)-7H-pyrrolo[2,3-d]pyrimidin-4-yl)-2-(hydroxymethyl)phenyl)ethyl)-1,2,4-oxadiazole-3-carboxamide] | 0.18 nM | < 5.00
